Experimental data: ChEMBL document CHEMBL4725396, “Discovery and optimization of pyrazolopyrimidine sulfamates as ATG7 inhibitors” (Bioorg Med Chem, 2020)

Legend:
[1] = target: T1, Ubiquitin-like modifier-activating enzyme ATG7 (Homo sapiens, UniProt O95352); experiment: Inhibition of recombinant His-tagged human ATG7 incubated for 105 mins in presence of GST-tagged ATG3 and Flag-tagged Gabarap and measured after 2 hrs by FRET assay relative to control
T1 sequence (O95352 whole entry): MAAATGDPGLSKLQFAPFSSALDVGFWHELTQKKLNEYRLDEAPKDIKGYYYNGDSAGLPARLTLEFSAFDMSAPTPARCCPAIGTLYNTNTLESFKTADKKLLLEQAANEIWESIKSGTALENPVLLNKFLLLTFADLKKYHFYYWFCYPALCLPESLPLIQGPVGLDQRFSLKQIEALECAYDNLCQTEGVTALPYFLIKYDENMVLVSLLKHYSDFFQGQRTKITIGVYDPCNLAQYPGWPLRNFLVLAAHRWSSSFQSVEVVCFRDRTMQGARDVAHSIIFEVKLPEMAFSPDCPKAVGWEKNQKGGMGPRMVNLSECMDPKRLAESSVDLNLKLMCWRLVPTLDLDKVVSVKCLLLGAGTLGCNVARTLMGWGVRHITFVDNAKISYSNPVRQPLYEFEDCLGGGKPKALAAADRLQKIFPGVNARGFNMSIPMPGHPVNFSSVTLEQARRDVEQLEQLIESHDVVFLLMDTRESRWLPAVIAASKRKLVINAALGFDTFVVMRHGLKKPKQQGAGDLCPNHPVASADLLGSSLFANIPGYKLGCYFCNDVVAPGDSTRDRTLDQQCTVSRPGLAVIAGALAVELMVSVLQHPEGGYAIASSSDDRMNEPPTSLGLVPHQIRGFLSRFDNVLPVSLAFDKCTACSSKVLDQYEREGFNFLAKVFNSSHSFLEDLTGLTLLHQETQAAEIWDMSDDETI

[2] = […] of autophagy in human H4 cells assessed as decrease in LC3B spot area by immunofluorescence assay; format: functional, cell-based
[3] = tested on: NCI-H1650; experiment: Antiproliferative activity against human H1650 cells assessed as reduction in cell viability after 72 hrs by cell titer glow assay; format: cell-based; conditions: NCI-H1650, 72 h
[4] = target: T1, Ubiquitin-like modifier-activating enzyme ATG7; experiment: Inhibition of ATG7 in human 293HEK cells assessed as inhibition of ATG7:ATG8 thioester formation after 8 hrs by Western blot analysis; format: cell-based, HEK293
[5] = target: T1, Ubiquitin-like modifier-activating enzyme ATG7; experiment: Inhibition of ATG7 in human 293HEK cells assessed as inhibition of ATG7:ATG8 thioester formation after 4 hrs by Western blot analysis; format: cell-based, HEK293
[6] = Inhibition of SAE (unknown origin)
[7] = Inhibition of NAE (unknown origin)
[8] = tested on: SK-OV-3; experiment: […] of autophagy in human SKOV3 cells assessed as accumulation of p62 by immunofluorescence assay; format: functional, cell-based
[9] = tested on: SK-OV-3; experiment: […] of autophagy in human SKOV3 cells assessed as accumulation of NRB1 by immunofluorescence assay; format: functional, cell-based
[10] = Inhibition of UAE (unknown origin)

Structure (SMILES)	IC50 [1]	IC50 [2]	EC50 [3]	IC50 [4]	IC50 [5]	IC50 [6]	IC50 [7]	EC50 [8]	EC50 [9]	IC50 [10]
Nc1ncnc2c1c(Sc1cccc(Cl)c1)nn2[C@H]1C[C@H](O)[C@H](COS(N)(=O)=O)O1	190 nM	1370 nM	> 50000 nM	–	–	–	–	–	–	–
CSc1nn([C@@H]2O[C@@H](COS(N)(=O)=O)[C@@H](O)[C@@H]2F)c2ncnc(N)c12	145 nM	2530 nM	> 50000 nM	–	–	–	–	–	–	–
Nc1ncnc2c1c(OC(F)F)nn2[C@H]1C[C@H](O)[C@@H](COS(N)(=O)=O)O1	100 nM	1770 nM	> 50000 nM	545 nM	–	–	–	–	–	–
CC(C)Sc1nn([C@@H]2O[C@H](COS(N)(=O)=O)[C@@H](O)[C@@H]2F)c2ncnc(N)c12	20 nM	727 nM	22400 nM	56 nM	199 nM	–	–	–	–	–
CSc1nn([C@@H]2O[C@H](COS(N)(=O)=O)[C@@H](O)[C@@H]2F)c2ncnc(N)c12	41 nM	977 nM	5790 nM	47 nM	–	–	–	–	–	–
Nc1ncnc2c1c(OCc1ccccc1)nn2[C@@H]1O[C@H](COS(N)(=O)=O)[C@@H](O)[C@H]1O	264 nM	–	> 50000 nM	1280 nM	–	–	–	–	–	–
COc1nn([C@H]2C[C@H](O)[C@@H](COS(N)(=O)=O)O2)c2ncnc(N)c12	249 nM	–	31500 nM	–	–	–	–	–	–	–
CC(C)Oc1nn([C@@H]2O[C@H](COS(N)(=O)=O)[C@@H](O)[C@H]2O)c2ncnc(N)c12	2600 nM	–	> 50000 nM	–	–	–	–	–	–	–
Nc1ncnc2c1c(Sc1cn[nH]c1)nn2[C@@H]1O[C@H](COS(N)(=O)=O)[C@@H](O)[C@H]1O	16 nM	–	> 50000 nM	–	1280 nM	–	–	–	–	–
Cc1cccc(Sc2nn([C@@H]3O[C@H](COS(N)(=O)=O)[C@@H](O)[C@@H]3F)c3ncnc(N)c23)c1	–	483 nM	49100 nM	51 nM	140 nM	–	–	–	–	–
CC(C)Sc1nn([C@H]2C[C@H](O)[C@@H](COS(N)(=O)=O)O2)c2ncnc(N)c12	27 nM	1090 nM	> 50000 nM	150 nM	438 nM	–	–	–	–	–
CSc1nn([C@H]2C[C@H](O)[C@@H](COS(N)(=O)=O)O2)c2ncnc(N)c12	48 nM	938 nM	10400 nM	86 nM	280 nM	> 1000 nM	> 1000 nM	3000 nM	> 20000 nM	> 1000 nM
CC(C)Sc1nn([C@H]2C[C@H](O)[C@H](COS(N)(=O)=O)O2)c2ncnc(N)c12	57 nM	1920 nM	> 50000 nM	–	468 nM	–	–	–	–	–
Nc1ncnc2c1c(SCc1ccccc1)nn2[C@@H]1O[C@H](COS(N)(=O)=O)[C@@H](O)[C@H]1O	23 nM	–	> 50000 nM	322 nM	604 nM	–	–	–	–	–
CCSc1nn([C@H]2C[C@H](O)[C@@H](COS(N)(=O)=O)O2)c2ncnc(N)c12	52 nM	1360 nM	> 50000 nM	–	367 nM	> 1000 nM	> 1000 nM	2300 nM	> 20000 nM	> 1000 nM
Nc1ncnc2c1c(Sc1cccc(Cl)c1)nn2[C@H]1C[C@H](O)[C@@H](COS(N)(=O)=O)O1	104 nM	1150 nM	> 50000 nM	–	499 nM	–	–	–	–	–
Nc1ncnc2c1c(Sc1ccc3c(c1)CCC3)nn2[C@H]1C[C@H](O)[C@@H](COS(N)(=O)=O)O1	66 nM	710 nM	> 50000 nM	–	–	–	–	–	–	–
Nc1ncnc2c1c(OC(F)F)nn2[C@@H]1O[C@H](COS(N)(=O)=O)[C@@H](O)[C@H]1O	29 nM	2300 nM	10000 nM	162 nM	479 nM	–	–	–	–	–
Cc1cccc(Sc2nn([C@@H]3O[C@H](COS(N)(=O)=O)[C@@H](O)[C@H]3O)c3ncnc(N)c23)c1	18 nM	–	> 50000 nM	178 nM	–	–	–	–	–	–

Structure (SMILES)	IC50 [1]	IC50 [2]	EC50 [3]	IC50 [4]	IC50 [5]	IC50 [6]	IC50 [7]	EC50 [8]	EC50 [9]	IC50 [10]
CSc1nn([C@H]2C[C@H](O)[C@H](COS(N)(=O)=O)O2)c2ncnc(N)c12	124 nM	1260 nM	> 50000 nM	–	–	–	–	–	–	–
Nc1ncnc2c1c(OC(F)F)nn2[C@@H]1O[C@H](COS(N)(=O)=O)[C@@H](O)[C@@H]1F	43 nM	–	18300 nM	–	453 nM	–	–	–	–	–
CC(C)Sc1nn([C@@H]2O[C@H](COS(N)(=O)=O)[C@@H](O)[C@H]2O)c2ncnc(N)c12	17 nM	4230 nM	> 50000 nM	284 nM	1250 nM	–	–	–	–	–
Cc1cccc(Sc2nn([C@H]3C[C@H](O)[C@@H](COS(N)(=O)=O)O3)c3ncnc(N)c23)c1	95 nM	1260 nM	> 50000 nM	–	422 nM	–	–	–	–	–
Nc1ncnc2c1c(Sc1cccc(Cl)c1)nn2[C@@H]1O[C@H](COS(N)(=O)=O)[C@@H](O)[C@@H]1F	31 nM	534 nM	39700 nM	56 nM	198 nM	–	–	–	–	–
COc1nn([C@@H]2O[C@H](COS(N)(=O)=O)[C@@H](O)[C@H]2O)c2ncnc(N)c12	89 nM	2600 nM	5940 nM	335 nM	–	> 50000 nM	> 1000 nM	–	–	> 1000 nM
Nc1ncnc2c1c(Sc1ccc3c(c1)CCC3)nn2[C@H]1C[C@H](O)[C@H](COS(N)(=O)=O)O1	156 nM	996 nM	> 50000 nM	–	–	–	–	–	–	–
Nc1ncnc2c1cnn2[C@@H]1O[C@H](COS(N)(=O)=O)[C@@H](O)[C@H]1O	457 nM	–	75 nM	–	–	–	–	–	–	–
COc1nn([C@@H]2O[C@H](COS(N)(=O)=O)[C@@H](O)[C@@H]2F)c2ncnc(N)c12	177 nM	–	33900 nM	317 nM	–	–	–	–	–	–
Nc1ncnc2c1c(CCc1ccccc1)nn2[C@@H]1O[C@H](COS(N)(=O)=O)[C@@H](O)[C@H]1O	351 nM	–	> 50000 nM	–	–	–	–	–	–	–
Cc1ccc(Sc2nn([C@H]3C[C@H](O)[C@@H](COS(N)(=O)=O)O3)c3ncnc(N)c23)c(F)c1	80 nM	533 nM	> 50000 nM	–	–	–	–	–	–	–
CSc1nn([C@@H]2O[C@H](COS(N)(=O)=O)[C@@H](O)[C@H]2O)c2ncnc(N)c12	14 nM	1500 nM	1540 nM	83 nM	431 nM	–	–	–	–	–
Nc1ncnc2c1c(Sc1ccccc1)nn2[C@@H]1O[C@H](COS(N)(=O)=O)[C@@H](O)[C@H]1O	29 nM	–	> 50000 nM	201 nM	–	–	–	–	–	–
CSc1nn([C@@H]2O[C@@H](COS(N)(=O)=O)[C@@H](O)[C@H]2O)c2ncnc(N)c12	325 nM	6000 nM	> 50000 nM	–	1280 nM	–	–	–	–	–
CC(C)Sc1nn([C@@H]2O[C@@H](COS(N)(=O)=O)[C@@H](O)[C@H]2O)c2ncnc(N)c12	129 nM	20100 nM	> 50000 nM	882 nM	882 nM	–	–	–	–	–
CCOc1nn([C@@H]2O[C@H](COS(N)(=O)=O)[C@@H](O)[C@H]2O)c2ncnc(N)c12	255 nM	–	49400 nM	–	–	–	–	–	–	–
CCSc1nn([C@@H]2O[C@H](COS(N)(=O)=O)[C@@H](O)[C@H]2O)c2ncnc(N)c12	22 nM	–	15400 nM	160 nM	–	–	–	–	–	–
Nc1ncnc2c1c(O)nn2[C@@H]1O[C@H](COS(N)(=O)=O)[C@@H](O)[C@H]1O	84 nM	–	> 50000 nM	–	–	–	–	–	–	–
Cc1ccc(Sc2nn([C@H]3C[C@H](O)[C@H](COS(N)(=O)=O)O3)c3ncnc(N)c23)c(F)c1	62 nM	659 nM	> 50000 nM	–	–	> 1000 nM	> 1000 nM	3000 nM	9400 nM	> 1000 nM
